Some test systems named below: HCT-116 colon; M14 melanoma; MALME-3M melanoma; OVCAR-8 ovarian; SF-268 CNS; UACC-62 melanoma; NCI-H23 lung; HS 578T breast; MDA-MB-435; T-47D breast.
Holding throughout (assay): NCI anticancer screen, dose series, 48 h

The structures appear in SMILES notation.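 Where inhibition never reached the appropriate level, the endpoint shown equals the highest concentration tested. Otherwise, values were interpolated linearly from a five-concentration, 48-hour dose response in 96-well plates. GI50 = concentration required for 50% inhibition of growth. TGI denotes the concentration required for complete inhibition of growth.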 Where only a bound is given, the exact number is not on record here.

Consider `CC(CC(=O)N1C(=O)C(C)(C)[C@@H](O)[C@H]1CC(C)C(Cl)(Cl)Cl)C(Cl)(Cl)Cl` (some centres undefined), for which the TGI in the test on HCT-116 colon, with M14 melanoma, in the test on MALME-3M melanoma, with OVCAR-8 ovarian, in the test with SF-268 CNS and with UACC-62 melanoma was over 100 µM each time.

With `COc1cc(/C=C(\NC(=O)c2ccccc2)c2nc3ccc4c(c3[nH]2)C(=O)c2ccccc2C4=O)cc(OC)c1OC`, the TGI in the test on HCT-116 colon, in the test with M14 melanoma, with MALME-3M melanoma, in the test with NCI-H23 lung, in the test on OVCAR-8 ovarian and in the test with SF-268 CNS was over 100 µM throughout. Besides, in the test on UACC-62 melanoma, the TGI was over 100 µM.

On to `O=C1CSC(=S)N1c1ccco1`, for which the TGI is over 100 µM in the test with HCT-116 colon; over 100 µM in the test on HS 578T breast; over 100 µM with M14 melanoma; over 100 µM with MALME-3M melanoma; 75.6 µM in the test on MDA-MB-435; over 100 µM with NCI-H23 lung. The TGI with OVCAR-8 ovarian and in the test with SF-268 CNS was over 100 µM in each case.

For `COc1ccc2c(c1)c(-c1nc(-c3c[nH]c4ncccc34)cs1)cn2CCCN1CCCCC1`, the GI50 in the test with HS 578T breast is 2.05 µM; with M14 melanoma, 1.79 µM; with MDA-MB-435, 1.7 µM; in the test on NCI-H23 lung, 1.77 µM; in the test with OVCAR-8 ovarian, 2 µM; with SF-268 CNS, 1.52 µM. For the same compound, the GI50 with UACC-62 melanoma is 1.87 µM. Further, the TGI came out at 5.61 µM in the test with HS 578T breast; 3.51 µM in the test with M14 melanoma; 3.21 µM in the test on MDA-MB-435; 3.52 µM with NCI-H23 lung; 3.76 µM in the test with OVCAR-8 ovarian; 3.17 µM with SF-268 CNS. This compound also had a TGI in the test on UACC-62 melanoma of 3.53 µM.

For the compound `COc1ccc(/C=C2\CN(C(=O)C(Cl)Cl)C/C(=C\c3ccc(OC)cc3)C2=O)cc1`, the GI50 was 0.234 µM in the test on HCT-116 colon; 2.65 µM in the test on HS 578T breast; 1.92 µM in the test with MALME-3M melanoma; 1.56 µM in the test with NCI-H23 lung; 0.881 µM in the test with OVCAR-8 ovarian; 2.95 µM in the test with SF-268 CNS. Moreover, the TGI with HCT-116 colon was 0.653 µM; in the test on HS 578T breast, over 100 µM; in the test on MALME-3M melanoma, 4.61 µM; in the test on NCI-H23 lung, 4 µM; in the test on OVCAR-8 ovarian, over 100 µM; in the test on SF-268 CNS, over 100 µM.

As to `O=C1C(=O)N(c2ccc(Cl)cc2)C(=O)C(=O)C1c1nc2ccccc2o1`, the TGI in the test with HCT-116 colon, in the test on M14 melanoma, in the test on MALME-3M melanoma, in the test on NCI-H23 lung, with OVCAR-8 ovarian and with SF-268 CNS was over 100 µM throughout. In the test on UACC-62 melanoma, this compound showed a TGI of over 100 µM.

In the case of `CSc1c(C2=C(c3cn(C)c4ccccc34)C(=O)NC2=O)c2ccccc2n1C`, the GI50 in the test on HCT-116 colon was 1.04 µM; in the test on HS 578T breast it was 0.59 µM; with M14 melanoma it was 0.649 µM; in the test on MALME-3M melanoma, 1.21 µM; in the test with NCI-H23 lung, 1.39 µM; in the test with OVCAR-8 ovarian, 1.56 µM. For the same compound, the figures for the GI50 with SF-268 CNS, with T-47D breast and in the test with UACC-62 melanoma were 1.51 µM, 1.15 µM and 0.896 µM, respectively. Further, the TGI with HCT-116 colon, with HS 578T breast, in the test on M14 melanoma, with MALME-3M melanoma, in the test on NCI-H23 lung and in the test with OVCAR-8 ovarian was over 25 µM in each case. Besides, the TGI in the test on SF-268 CNS, with T-47D breast and with UACC-62 melanoma was over 25 µM in each case.

Turning to `O=S(=O)([O-])c1ccc(N=Cc2ccccc2[O-])cc1.O=S(=O)([O-])c1ccc(N=Cc2ccccc2[O-])cc1.[Co+2]`, the GI50 was 79.6 µM in the test on M14 melanoma; over 100 µM in the test with MALME-3M melanoma; over 100 µM in the test with NCI-H23 lung; over 100 µM in the test with OVCAR-8 ovarian; 20.7 µM with SF-268 CNS; 76.8 µM in the test with UACC-62 melanoma. In addition, the TGI in the test on M14 melanoma was over 100 µM; in the test on MALME-3M melanoma it was over 100 µM; in the test on NCI-H23 lung, over 100 µM; in the test with OVCAR-8 ovarian, over 100 µM; with SF-268 CNS it was 79.3 µM; with UACC-62 melanoma, over 100 µM.

In the case of `CN1CN(C2OC(CO)C(O)C2O)c2nc(N)[nH]c(=O)c21` (centres undefined), the TGI in the test on HCT-116 colon, in the test with M14 melanoma, with MALME-3M melanoma, in the test on NCI-H23 lung, in the test with OVCAR-8 ovarian and in the test on SF-268 CNS was over 100 µM each time. In the test with UACC-62 melanoma, this compound came in with a TGI of over 100 µM.

On to `COc1cc(-c2nccc3cc(OC)c(OC)cc23)ccc1O`, for which the TGI in the test with HCT-116 colon, with M14 melanoma, in the test on MALME-3M melanoma, in the test with NCI-H23 lung, with OVCAR-8 ovarian and in the test on UACC-62 melanoma was over 100 µM each time.

For `O=c1c2ccc(S(=O)(=O)c3ccc4c(=O)n5c6ccccc6nc5c5cccc3c45)c3cccc(c32)c2nc3ccccc3n12`, the TGI with HCT-116 colon, with M14 melanoma, in the test with MALME-3M melanoma, with MDA-MB-435, in the test on NCI-H23 lung and in the test on OVCAR-8 ovarian was over 100 µM throughout. The TGI with SF-268 CNS is over 100 µM; in the test on T-47D breast, 99.3 µM; with UACC-62 melanoma it was over 100 µM.

For the compound `CCC[CH2][Sn]([CH2]CCC)([O]c1cccc2cccnc12)[O]c1cccc2cccnc12`, the GI50 is 0.189 µM in the test on HCT-116 colon; 0.186 µM with M14 melanoma; 0.169 µM in the test on NCI-H23 lung; 0.263 µM in the test with OVCAR-8 ovarian; 0.203 µM with SF-268 CNS; 0.193 µM in the test on UACC-62 melanoma. Also, the TGI came to 0.385 µM with HCT-116 colon; 0.369 µM in the test on M14 melanoma; 0.52 µM in the test with NCI-H23 lung; 0.945 µM in the test on OVCAR-8 ovarian; 0.575 µM in the test on SF-268 CNS; 0.421 µM in the test with UACC-62 melanoma.

Turning to `CCCCCOCC(O)CO` (centres undefined), the TGI with HCT-116 colon, with MALME-3M melanoma, with NCI-H23 lung, in the test on OVCAR-8 ovarian, with SF-268 CNS and in the test with UACC-62 melanoma was over 100 µM each time.

For `CC(C)N(O)C(=N)c1ccccc1`, the TGI with HCT-116 colon, with M14 melanoma, in the test with NCI-H23 lung, in the test with OVCAR-8 ovarian and in the test with SF-268 CNS was over 100 µM in each case.

Source of the values: PubChem BioAssay (NCI).
